Data: ChEMBL document CHEMBL1201862, “PubChem BioAssay data set” (2004)
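Five compound concentrations were applied to cells in 96-well plates for 48 hours; endpoints were derived by simple linear interpolation of the resulting dose-response curve. Abbreviation: GI50, concentration required for 50% inhibition of growth.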 Calls of active or inactive are those of the source. No stated cut-off is given here; in the data, active = GI50 up to about 1.1 µM and inactive = higher.

Experiments:
Experiment in all cases: NCI-60 cell line screen, 48 h
[1] = system: NCI-H226
[2] = system: COLO 205
[3] = system: SN12C
[4] = system: A549
[5] = system: OVCAR-5
[6] = system: U-251
[7] = system: UO-31
[8] = system: MCF7
[9] = system: MDA-MB-435
[10] = system: OVCAR-4
[11] = system: HCC 2998
[12] = system: LOX IMVI
[13] = system: ACHN
[14] = system: SW-620
[15] = system: Hs-578T
[16] = system: HL-60
[17] = system: SF-268
[18] = system: CCRF-CEM
[19] = system: UACC-62
[20] = system: A498

Measured: GI50

COc1ccc2c(c1O)[C@@]13CCCC=C1[C@@H](C2)N(C)CC3
inactive: [1] 31.6 µM | [2] 97.1 µM | [3] > 100 µM | [4] > 100 µM | [5] > 100 µM | [6] > 100 µM | [7] 39 µM | [8] 81.5 µM | [9] 36.6 µM | [10] > 100 µM | [11] > 100 µM | [12] 41.4 µM | [13] > 100 µM | [14] 69.3 µM | [15] 42.5 µM | [16] 21.4 µM | [17] > 100 µM | [18] 27.5 µM | [19] > 100 µM

O=C1c2ccccc2-c2c1c(-c1ccc([N+](=O)[O-])cc1)nc1ccc3ccccc3c21
inactive: [1] > 100 µM | [2] > 100 µM | [3] > 100 µM | [4] > 100 µM | [5] > 100 µM | [6] > 100 µM | [20] > 100 µM | [7] > 100 µM | [8] > 100 µM | [9] > 100 µM | [10] > 100 µM | [11] > 100 µM | [13] > 100 µM | [14] > 100 µM | [15] > 100 µM | [17] > 100 µM | [18] > 100 µM | [19] > 100 µM

Cc1cc(NC[C@H](O)[C@H](O)[C@H](O)CO)c(Sc2cc(=O)[nH]c(=O)[nH]2)cc1C
inactive: [1] > 62.5 µM | [2] > 62.5 µM | [3] > 62.5 µM | [4] > 62.5 µM | [5] > 62.5 µM | [6] > 62.5 µM | [20] > 62.5 µM | [7] > 62.5 µM | [8] > 62.5 µM | [9] > 62.5 µM | [10] > 62.5 µM | [11] > 62.5 µM | [12] > 62.5 µM | [13] > 62.5 µM | [14] > 62.5 µM | [15] > 62.5 µM | [17] > 62.5 µM | [18] > 62.5 µM | [19] > 62.5 µM

CC(=O)c1c(N=[N+]=[N-])c2cccc3c2n(c1=O)CCC3
inactive: [1] 22.9 µM | [2] 21.4 µM | [3] 22.1 µM | [4] 29 µM | [5] 15.2 µM | [6] 17.3 µM | [20] 21.3 µM | [7] 30.2 µM | [8] 19.8 µM | [9] 19.1 µM | [10] 21 µM | [11] 16.9 µM | [12] 15.1 µM | [13] 24.9 µM | [14] 16 µM | [15] 22.9 µM | [17] 18.6 µM | [18] 19.1 µM | [19] 16.5 µM

C[C@@]12C[C@@H](c3ccccc3O1)N1Cc3ccccc3CSC1=N2
inactive: [1] > 100 µM | [2] 35.2 µM | [3] > 100 µM | [5] > 100 µM | [6] 52.8 µM | [20] > 100 µM | [7] > 100 µM | [8] 50.4 µM | [9] > 100 µM | [10] 66.1 µM | [11] 33.3 µM | [12] 35.5 µM | [13] > 100 µM | [14] > 100 µM | [15] > 100 µM | [17] > 100 µM | [19] 81.5 µM

O=S(=O)(Cc1cnc(O)nc1O)Cc1cnc(O)nc1O
inactive: [1] > 100 µM | [2] > 100 µM | [3] > 100 µM | [4] > 100 µM | [5] > 100 µM | [6] > 100 µM | [20] > 100 µM | [7] > 100 µM | [8] > 100 µM | [9] > 100 µM | [10] > 100 µM | [12] > 100 µM | [13] > 100 µM | [14] > 100 µM | [15] > 100 µM | [17] > 100 µM | [19] > 100 µM

O=C1C(Cl)C(c2cccc(Br)c2)N1c1c(O)c(Cl)cc(Br)c1Cl (configuration not stated)
inactive: [1] 18.2 µM | [2] 8.63 µM | [3] 14.7 µM | [4] 17.3 µM | [5] 26.7 µM | [6] 12.7 µM | [7] 16.8 µM | [8] 12.1 µM | [9] 15 µM | [10] 12.3 µM | [11] 11.1 µM | [12] 14.5 µM | [13] 15.2 µM | [14] 19.3 µM | [15] 9.46 µM | [16] 26.4 µM | [17] 14.8 µM | [18] 14.6 µM | [19] 14.5 µM

CC(NC(=O)c1c(O)[nH]c(=S)[nH]c1=O)c1ccc([N+](=O)[O-])cc1 (configuration not stated)
inactive: [1] 70.1 µM | [2] > 100 µM | [3] > 100 µM | [4] > 100 µM | [5] > 100 µM | [6] 32.5 µM | [7] > 100 µM | [8] 71 µM | [9] > 100 µM | [10] 49 µM | [11] 35.8 µM | [12] 90.8 µM | [13] > 100 µM | [14] > 100 µM | [15] > 100 µM | [16] > 100 µM | [17] 52.8 µM | [18] 40.8 µM | [19] 77.3 µM
